Assays:
[1] = target: hERG (Homo sapiens, UniProt Q12809); assay: hERG Binding Assay (fluorescence polarization, Cy3B N-desmethyl dofetilide); set-up: expressed in transfected cells; membrane homogenate used
Method: 67 black 384 well flat -bottomed polystyrene plates. Compound/vehicle or standard (5 µL) were added
68 to wells followed by His -tagged BRD4 (10 µL; 40 nM final concentration in assay). Following a
69 15 min incubation at room temperature a propri etary Cy5 -labelled probe molecule (5 µL; 2 nM
70 final concentration in assay) was added. Following, an additional 16 h incubation at room
71 temperature fluorescence polarization measurements were made using an Envision plate reader
72 (Perkin Elmer, Waltham, MA, USA) and mP values were used for analysis .
73 Acetylcholinesterase As say
74 The assay described is based on Ellmans method, in which thiocholine produced by the action of
75 acetylcholinesterase forms a yellow color with 5,5'- dithiobis(2- nitrobenzoic acid). The intensity
76 of the product color, measured at 405 nm, is proportionate to the enzyme activity in the sample.
77 To each well of a clear 96 polystyrene plate 90 µL enzyme solution (1mU/well) or phosphate
78 buffered saline (PBS) and 10 µL compound/standard or vehicle was added. The plate was […]
81 read at the 20 min time point. […]
100 at room temperature for 16 h. Fluorescence polarization measurements were made using an
101 Envision plate reader (Perkin Elmer, Waltham, M A, USA) and mP values were us ed for analysis.
102 Binding Ki values were determined using the Cheng- Prusoff equation (Ki = IC50/(1+L/Kd)), where […]

[2] = target: T1, human GPR101 (Homo sapiens, UniProt Q96P66); assay: Functional cAMP assay (HTRF), stable CHO TREx human GPR101 cells; type: cell-based; conditions: Supplementary Table 2
T1 construct: expressed in transfected cells
T1 sequence (Q96P66 whole entry): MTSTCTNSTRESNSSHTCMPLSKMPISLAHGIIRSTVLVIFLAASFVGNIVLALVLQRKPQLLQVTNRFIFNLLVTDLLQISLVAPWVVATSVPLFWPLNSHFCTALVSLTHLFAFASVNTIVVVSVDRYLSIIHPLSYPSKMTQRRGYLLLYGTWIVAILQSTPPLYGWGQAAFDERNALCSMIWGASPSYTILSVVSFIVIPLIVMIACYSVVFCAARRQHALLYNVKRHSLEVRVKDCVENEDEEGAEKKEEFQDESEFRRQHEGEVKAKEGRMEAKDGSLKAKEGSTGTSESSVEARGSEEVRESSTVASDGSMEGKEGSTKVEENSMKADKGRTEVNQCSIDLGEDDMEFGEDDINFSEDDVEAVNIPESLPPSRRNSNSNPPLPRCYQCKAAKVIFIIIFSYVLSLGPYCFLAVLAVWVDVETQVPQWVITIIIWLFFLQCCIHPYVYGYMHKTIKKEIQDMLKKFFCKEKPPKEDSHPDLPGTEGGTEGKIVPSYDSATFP
Method: A homogeneous Time-Resolved Fluorescence (HTRF) assay (Perkin Elmer, Dynamic2 kit #) was used to assess receptor basal and inverse agonist activity at human GPR61, GPR62, and GPR101. For routine inverse agonist screening frozen CHO TREx human GPR61, GPR62 and GPR101 cells were used. Cells were thawed, resuspended in complete assay media (DMEM F-12, 10% HI FBS, 100 μg/mL Normocin, 700 μg/mL Hygromycin B and 15 μg/mL Blasticidin) containing 1ug/ml doxycycline, plated in white 384 well plates (Corning, 3570) at a density of 750 cells/well (25 μl/ well) and cultured at 37 °C in an incubator overnight. For studies assessing basal and inverse agonist activity at human GPR61 mutants, CHO-K1 cells were transiently transfected using Fugene6, plated in white 384 well plates (7500 cells/well) and grown overnight at 37 °C, as described for receptor expression studies. […] Data were analyzed using the ratio of fluorescence intensity at 620 and 665 nm for each well, extrapolated from the cAMP standard curve to express data as nM cAMP for each well. […]

hERG, sequence (Q12809 whole entry): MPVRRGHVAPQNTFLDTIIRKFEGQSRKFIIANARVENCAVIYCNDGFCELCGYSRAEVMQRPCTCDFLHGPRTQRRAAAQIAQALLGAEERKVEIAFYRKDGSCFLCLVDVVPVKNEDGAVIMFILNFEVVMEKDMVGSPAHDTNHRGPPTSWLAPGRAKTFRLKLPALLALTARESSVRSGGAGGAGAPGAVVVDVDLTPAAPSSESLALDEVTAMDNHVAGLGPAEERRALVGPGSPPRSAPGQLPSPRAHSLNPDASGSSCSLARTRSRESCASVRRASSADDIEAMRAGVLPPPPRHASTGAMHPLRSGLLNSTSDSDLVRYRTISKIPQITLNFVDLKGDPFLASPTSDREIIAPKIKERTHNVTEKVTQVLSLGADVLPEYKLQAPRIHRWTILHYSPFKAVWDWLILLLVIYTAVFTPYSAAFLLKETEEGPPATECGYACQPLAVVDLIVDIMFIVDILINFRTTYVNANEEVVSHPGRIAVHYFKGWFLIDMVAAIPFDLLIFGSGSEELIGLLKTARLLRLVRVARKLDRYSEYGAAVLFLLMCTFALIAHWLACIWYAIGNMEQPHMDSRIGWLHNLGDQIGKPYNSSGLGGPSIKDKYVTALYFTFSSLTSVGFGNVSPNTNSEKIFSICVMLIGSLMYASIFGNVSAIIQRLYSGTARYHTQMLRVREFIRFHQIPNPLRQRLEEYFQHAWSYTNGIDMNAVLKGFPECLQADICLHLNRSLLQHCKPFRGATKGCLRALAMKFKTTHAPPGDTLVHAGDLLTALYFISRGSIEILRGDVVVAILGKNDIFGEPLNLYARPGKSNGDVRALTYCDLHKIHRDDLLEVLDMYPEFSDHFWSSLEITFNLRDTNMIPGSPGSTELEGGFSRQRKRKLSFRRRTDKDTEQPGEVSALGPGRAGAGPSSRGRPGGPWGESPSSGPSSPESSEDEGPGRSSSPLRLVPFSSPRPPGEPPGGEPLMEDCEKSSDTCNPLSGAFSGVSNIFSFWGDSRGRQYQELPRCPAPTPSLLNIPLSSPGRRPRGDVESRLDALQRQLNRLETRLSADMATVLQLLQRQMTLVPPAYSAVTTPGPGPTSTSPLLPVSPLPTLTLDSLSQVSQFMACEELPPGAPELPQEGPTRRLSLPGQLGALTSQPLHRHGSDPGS

Q: For `CCOc1cc(C)nc(N(CCOC)S(=O)(=O)c2ccc(NCc3c(F)cncc3F)nc2OC)n1` [Compound 1], which Ki [1] is on record?
A: > 80 µM

Q: What about the IC50 [2] of the same compound?
A: > 29.7 µM

From article PMC10517971, “An inverse agonist of orphan receptor GPR61 acts by a G protein-competitive allosteric mechanism” (Nature Communications, 2023)
